# Source: patent US20030124653A1, “Method of producing glycoproteins having reduced complex carbohydrates in mammalian cells” (NOVAZYME PHARMACEUTICALS, INC., priority 2001, published 2003)
# System: CHO cell line (GAA LEC clone R3.3) expressing rh-GAA
# Experiment: Phosphorylation efficiency of rh-GAA from cultures containing mannosidase inhibitors ([32P] incorporation by GlcNAc phosphotransferase)
# Format: cell-based, Chinese Hamster
# Conditions: for [^32P] Phosphate Incorporation (cpm): conditioned media with 6 μg GAA; for effect on the phosphorylation reaction of rh-GAA: increasing amounts of inhibitor alone, versus GAA cultured without mannosidase inhibitors (FIG. 1)
# Description: To determine whether mannosidase inhibitors can increase phosphorylation efficiency of recombinant human acid alpha glucosidase (rh-GAA), a CHO cell line (GAA LEC clone R3.3) expressing rh-GAA was grown in various conditions that contained different amounts of the following mannosidase the inhibitors: Kifunensin; Deoxymannojirimycin (DMJ); or combinations of both inhibitors. Conditioned media from each inhibitor condition containing 6 μg of GAA (based on GAA activity assay) was then incubated with purified bovine GlcNAc phosphotransferase (Pt'ase) and [^32P]UDP-GlcNAc. Subsequently, each phosphorylation reaction was loaded onto a concanavalin A-sepharose column to capture glycoproteins, e.g., rh-GAA. The concanavalin A-sepharose was washed and the resin was counted in a liquid scintillation counter to measure the ^32P incorporation, i.e., the extent of phosphorylation on rh-GAA. The results are summarized in Table 1 below and FIGS. 1 and 2.
SMILES,[^32P] Phosphate Incorporation (cpm) (0.5 mM inhibitor in culture),[^32P] Phosphate Incorporation (cpm) (1.0 mM inhibitor in culture),[^32P] Phosphate Incorporation (cpm) (1.75 mM inhibitor in culture),[^32P] Phosphate Incorporation (cpm) (2.5 mM inhibitor in culture),[^32P] Phosphate Incorporation (cpm) (5.0 mM inhibitor in culture),effect on the phosphorylation reaction of rh-GAA,[^32P] Phosphate Incorporation (cpm) (0.5 μg/ml inhibitor in culture),[^32P] Phosphate Incorporation (cpm) (1.0 μg/ml inhibitor in culture),[^32P] Phosphate Incorporation (cpm) (2.5 μg/ml inhibitor in culture),[^32P] Phosphate Incorporation (cpm) (5.0 μg/ml inhibitor in culture),[^32P] Phosphate Incorporation (cpm) (10.0 μg/ml inhibitor in culture)
"OC[C@H]1NC[C@@H](O)[C@@H](O)[C@@H]1O [DMJ only, deoxymannojirimycin]",3656 cpm,4500 cpm,4450 cpm,7258 cpm,6413 cpm,greatly enhance,,,,,
"O=C1N[C@@H]2[C@@H](O)[C@@H](O)[C@H](O)[C@@H](CO)N2C1=O [Kifunensin only, kifunensine]",,,,,,greatly enhance,6675 cpm,8585 cpm,7147 cpm,6717 cpm,7116 cpm
